From patent US9895352B2, “Indolinone compounds and uses thereof” (Oncternal Therapeutics, Inc., priority 2014, dated 2018)
pIC50: −log10 of the molar value. Values joined by “and” are separate entries in the source; they are usually repeats but may differ in a detail not shown here. Equal entries are not always repeated. Where two headings read alike, the source gives them in different places.

How the values were obtained:
[1] = Pharmacokinetics, continuous infusion study in rat; assay type: in vivo; conditions: for Vd / clearance / half-life: plasma, iv
Experimental: (§1) Certain pharmacokinetics parameters were determined for certain compounds in vivo for intravenous and oral administration. Briefly, compounds were formulated and administered using IV bolus, continuous IV infusion or oral administration. Blood was collected at multiple time points over 24 hours and processed into plasma. Plasma was analyses for parent using LC/MS/MS. Certain parameters for certain compounds were obtained in duplicate.

A4573 tumor cells [2] = test: A4573 xenograft study in mice; assay type: in vivo; conditions: A4573 tumors, relative to vehicle control
[3] = human liver microsome, no cofactor, 60 min
LNCap = test: CCK-8 tetrazolium tumor cell growth inhibition, LNCap; assay type: cell-based; conditions: Homo sapiens, Prostate, rearranged ETV1
Experimental: (§2) A modified tetrazolium salt assay using the CCK-8 kit (Sigma-Aldrich; St Louis, Mo.) was used to measure the inhibition of human tumor cell growth. Tumor cells (5000-7500 per well) were added to 96 well plates and allowed to attach for 4-5 hours. Compounds were serially diluted and added in triplicate at a concentration of 0.02 to 5 μM. DMSO was included as a vehicle control. Cells were incubated in the presence of compound for 3 days. After incubation CCK-8 reagent was added to each well and incubated for 2-4 hours. Viable cells were quantitated spectrophotometrically at a wavelength of 450 nm. Percent viability of each sample was calculated from the A450 values as follows: % viability=(A450 nm sample/A450 nm DMSO-treated cells×100). […] IC50 activities of particular compounds were determined using SKES cells (Ewing Sarcoma cell line).

in vitro [4] = conditions: mouse
BxPC3 = test: CCK-8 tetrazolium tumor cell growth inhibition, BxPC3; assay type: cell-based; conditions: Homo sapiens, BXPC-3; BxPC3, Pancreas, increased FLI1
Experimental: as §2

[5] = Pharmacokinetics after IV and oral administration; assay type: in vivo; conditions: BALB/c mice or Sprague Dawley rats; for Cmax / half-life / Tmax / bioavailability: plasma; for Tmax: read-out: Tmax
Experimental: as §1

MCF7 = test: CCK-8 tetrazolium tumor cell growth inhibition, MCF7; assay type: cell-based; conditions: Homo sapiens; MCF7, Breast, no ETS rearrangement
Experimental: as §2

[6] = Half-life in human hepatocytes; assay type: in vitro ADME; conditions: read-out: Half life of cmpds
Experimental: (§3) In another study, metabolism of compounds in hepatocytes from various species was examined. Hepatocytes were contacted with a compound, and the half-life of the compound was determined.

[7] = Half-life in mouse hepatocytes; assay type: in vitro ADME; conditions: read-out: Half life of cmpds
Experimental: as §3

A4573 = test: CCK-8 tetrazolium tumor cell growth inhibition, A4573; assay type: cell-based; conditions: Homo sapiens; A4573, ES, EWS-FLI1 Type 3
Experimental: as §2

[8] = mouse liver microsome, no cofactor, 60 min
TC71 = test: CCK-8 tetrazolium tumor cell growth inhibition, TC71; assay type: cell-based; conditions: Homo sapiens, TC-71; TC71, ES, EWS-FLI1 Type 1
Experimental: as §2

[9] = Half-life in rat hepatocytes; assay type: in vitro ADME; conditions: read-out: Half life of cmpds
Experimental: as §3

[10] = dog liver microsome, no cofactor, 60 min
in vitro [11] = conditions: rat
MDA-MB-231 = test: CCK-8 tetrazolium tumor cell growth inhibition, MDA-MB-231; assay type: cell-based; conditions: Homo sapiens; MDA-MB-231, Breast, increased ETV1
Experimental: as §2

PANC1 = test: CCK-8 tetrazolium tumor cell growth inhibition, PANC1; assay type: cell-based; conditions: Homo sapiens, PANC-1; PANC1, Pancreas, no ETS rearrangement
Experimental: as §2

[12] = rat liver microsome, no cofactor, 60 min
[13] = Pharmacokinetics, continuous infusion study in dog; assay type: in vivo; conditions: for Vd / clearance / half-life: plasma, iv
Experimental: as §1

PC3 = test: CCK-8 tetrazolium tumor cell growth inhibition, PC3; assay type: cell-based; conditions: Homo sapiens, PC-3; PC3, Prostate, no ETS rearrangement
Experimental: as §2

A4573 tumor cells [14] = test: similar rat xenograft study; assay type: in vivo; conditions: compared to the vehicle control
[15] = Half-life in dog hepatocytes; assay type: in vitro ADME; conditions: read-out: Half life of cmpds
Experimental: as §3

in vitro [16] = conditions: dog
in vitro [17] = conditions: human liver microsomes
[18] = system: SKES cells (Ewing Sarcoma cell line); test: CCK-8 tetrazolium tumor cell growth inhibition, SKES; assay type: cell-based; conditions: Homo sapiens
Experimental: as §2

[19] = iv, 5 mg/kg, 5 mg/kg IV, captisol
[20] = iv, 10 mg/kg, 10 mg/kg IV, captisol
[21] = po, 25 mg/kg, 25 mg/kg po, labrasol:tetraglycol:water 72:8:20
[22] = po, 100 mg/kg, 100 mg/kg po, PEG-400/tween
[23] = po, 100 mg/kg, 100 mg/kg po, labrasol/tetraglycol
[24] = 20 mg/kg po, labrasol/tetraglycol 9:1
[25] = 20 mg/kg po, labrasol:tetraglycol:water 72:8:20
[26] = po, 20 mg/kg, 20 mg/kg po, labrasol/tetraglycol 9:1
[27] = po, 20 mg/kg, 20 mg/kg po, labrasol:tetraglycol:water 72:8:20
[28] = 72 h, SKES cells, 3 days with compound, CCK-8 (TABLE 3)

## O=C(CC1(O)C(=O)Nc2c(Cl)ccc(Cl)c21)c1ccc(C2CC2)cc1 (single isomer, unassigned) [Cmpd 14, 4,7-Dichloro-3-(2-(4-cyclopropylphenyl)-2-oxoethyl)-3-hydroxyindolin-2-one]
[1]; 24 mg/kg/day
  Css(3-24 h): 344 ng/mL and 0.91 μM
  MRT24-inf: 1.11 h
  Vd: 3.46 L/kg
  clearance: 48.7 mL/min/kg
  half-life: 0.824 h
[1]; 96 mg/kg/day
  Css(3-24 h): 1376 ng/mL and 3.7 μM
  MRT24-inf: 1.73 h
  Vd: 4.23 L/kg
  clearance: 49.6 mL/min/kg
  half-life: 1 h
A4573 tumor cells [2]; 100 mg/kg bid oral
  tumor growth inhibition (TGI): 57%
[3]
  Remaining (NCF = 60 min): 104.5%
LNCap
  pIC50: > 5.30
In vitro [4]; microsomes
  half-life: 0.385 h
BxPC3
  pIC50: > 5.30
[5]; 5 mg/kg IV, captisol
  AUC: 4131 h * (ng/mL)
[5]; 10 mg/kg IV, captisol
  AUC: 6059 h * (ng/mL)
[5]; 25 mg/kg po, labrasol:tetraglycol:water 72:8:20
  AUC: 13152 h * (ng/mL)
[5]; 100 mg/kg po, PEG-400/tween
  AUC: 92219 h * (ng/mL)
[5]; 100 mg/kg po, labrasol/tetraglycol
  AUC: 146167 h * (ng/mL)
[5]; [19]
  Cmax: 10900 ng/mL
  half-life: 0.8 h
  Tmax: 0.03 h
[5]; [20]
  Cmax: 39800 ng/mL
  half-life: 1.43 h
  Tmax: 0.03 h
[5]; [21]
  Cmax: 2770 ng/mL
  bioavailability: 64%
  half-life: 3.1 h
  Tmax: 1 h
[5]; [22]
  Cmax: 26000 ng/mL
  bioavailability: 100%
  half-life: 3.83 h
  Tmax: 0 h
[5]; [23]
  Cmax: 33000 ng/mL
  bioavailability: 100%
  half-life: 7.71 h
  Tmax: 2 h
MCF7
  pIC50: < 5.30
[6]
  half-life: 1.26 h
[7]
  half-life: 1.05 h
A4573
  pIC50: > 5.30
[8]
  Remaining (NCF = 60 min): 102.0%
TC71
  pIC50: > 5.30
[9]
  half-life: 0.457 h
[10]
  Remaining (NCF = 60 min): 97.1%
In vitro [11]; microsomes
  half-life: 2.8 min
MDA-MB-231
  pIC50: > 5.30
PANC1
  pIC50: < 5.30
[12]
  Remaining (NCF = 60 min): 97.6%
[13]; 10 mg/kg/day
  Css(3-24 h): 210 ng/mL and 0.56 μM
  MRT24-inf: 2.5 h
  Vd: 5.64 L/kg
  clearance: 33.6 mL/min/kg
  half-life: 1.9 h
[13]; 25 mg/kg/day
  Css(3-24 h): 466 ng/mL and 1.24 μM
  MRT24-inf: 2.2 h
  Vd: 5.66 L/kg
  clearance: 37.3 mL/min/kg
  half-life: 1.7 h
PC3
  pIC50: < 5.30
A4573 tumor cells [14]
  tumor growth inhibition (TGI): 53%
[15]
  half-life: 0.338 h

## O=C(CC1(O)C(=O)Nc2c(Cl)ccc(Cl)c21)c1ccc(N2CCCC2)cc1 (single isomer, unassigned) [Cmpd 18, 4,7-Dichloro-3-hydroxy-3-(2-oxo-2-(4-(pyrrolidin-1-yl)phenyl)ethyl)indolin-2-one]
[3]
  Remaining (NCF = 60 min): 99.4%
In vitro [4]; liver microsomes
  half-life: 0.16 h
[5]; 5 mg/kg IV, captisol
  AUC: 3738 h * (ng/mL)
[5]; [24]
  AUC: 7497 h * (ng/mL)
[5]; [25]
  AUC: 11029 h * (ng/mL)
[5]; [19]
  Cmax: 14300 ng/mL
  half-life: 0.8 h
  Tmax: 0.033 h
[5]; [26]
  Cmax: 3220 ng/mL
  bioavailability: 50%
  half-life: 1.4 h
  Tmax: 1 h
[5]; [27]
  Cmax: 6420 ng/mL
  bioavailability: 74%
  half-life: 0.9 h
  Tmax: 1 h
[6]
  half-life: 1.06 h
[7]
  half-life: 1 h
In vitro [16]; liver microsomes
  half-life: 0.402 h
In vitro [17]
  half-life: 0.383 h
[9]
  half-life: 0.313 h
In vitro [11]; liver microsomes
  half-life: 1.3 min
[18]; [28]
  pIC50: > 5.30
[18]; SKES, ES, EWS-FLI1 Type 2
  pIC50: > 5.30
[15]
  half-life: 0.51 h

## COc1ccc(C(=O)CC2(O)C(=O)Nc3c(Cl)ccc(Cl)c32)cc1 (single isomer, unassigned) [Cmpd 2, 4,7-Dichloro-3-hydroxy-3-[2-(4-methoxyphenyl-2-oxoethyl)]-1,3-dihydroindol-2-one]
A4573 tumor cells [2]; 200 mg/kg bid oral
  tumor growth inhibition (TGI): did not show TGI
[3]
  Remaining (NCF = 60 min): 112.1%
LNCap
  pIC50: > 5.30
BxPC3
  pIC50: > 5.30
[5]; 5 mg/kg IV, captisol
  AUC: 1991 h * (ng/mL)
[5]; [24]
  % F: 49%
  AUC: 3896 h * (ng/mL) and 3890 h * (ng/mL)
[5]; [25]
  % F: 57%
  AUC: 4574 h * (ng/mL)
[5]; [19]
  Cmax: 9380 ng/mL
  Tmax: 0.033 h
[5]; [26]
  Cmax: 2240 ng/mL
  bioavailability: 40%
  half-life: 1.6 h
  Tmax: 1 h
[5]; [27]
  Cmax: 2840 ng/mL
  bioavailability: 47%
  half-life: 1.5 h
  Tmax: 1 h
MCF7
  pIC50: < 5.30
In vitro [16]; microsomes
  half-life: 0.505 h
A4573
  pIC50: > 5.30
[8]
  Remaining (NCF = 60 min): 90.2%
TC71
  pIC50: > 5.30
[10]
  Remaining (NCF = 60 min): 100.6%
In vitro [11]; microsomes
  half-life: 3.8 min
MDA-MB-231
  pIC50: > 5.30
PANC1
  pIC50: < 5.30
[18]; [28]
  pIC50: > 5.30
[18]; SKES, ES, EWS-FLI1 Type 2
  pIC50: > 5.30
[12]
  Remaining (NCF = 60 min): 92.7%
PC3
  pIC50: < 5.30
A4573 tumor cells [14]
  tumor growth inhibition (TGI): 87%
